Measured values taken from publication PMC6099617, “Synthesis of Antibacterial Nisin–Peptoid Hybrids Using Click Methodology” (Molecules : A Journal of Synthetic Chemistry and Natural …, 2018).
Converted amounts (≈) assume the structure as drawn. Like-named read-outs stand apart in the source and are kept apart here. Square brackets hold non-standard residues; d marks the D form. Peptide text beside a SMILES is read from it. N(4-F-Bzl)Gly = O=C(O)CNCc1ccc(F)cc1; Gly(N-2-aminoethyl) = NCCNCC(=O)O; Nspe = C[C@H](NCC(=O)O)c1ccccc1; Nlys = NCCCCNCC(=O)O

Columns and labels:
epithelial HepG2 cells = assay: Cytotoxicity assay (alamarBlue cell viability), HepG2; type: cell-based; settings: 1 hour with compound 2–100 µM, then 24 hours
Description: (§1) Cytotoxicity analyses were performed in 96-well plates (Costar, Fisher Scientific) using alamarBlue® (Invitrogen) for cell viability detection using a modified protocol as previously described.9 The HepG2 or HaCaT cells were grown at 37 °C, 5 % CO2 in DMEM10 high glucose supplemented with heat-inactivated foetal bovine sera (FBS, 10 %; Biosera Ltd) and penicillin/streptomycin (P/S, 1 %). Cells were counted using a Neubauer Improved Haemocytometer. Cells were seeded 1 day prior to treatment in 96 well plates at a concentration of 2 x 10^5 cells mL-1 in 100 µL of medium (2 x 10^4 cells/well). Empty wells were filled with 100 µL PBS. After 24 hours, cells were incubated with the compounds in a dilution series in triplicate from 2–100 µM (5 mM stock solutions in DMSO; untreated cells with DMSO as a negative control) in 50 µL of the media for 1 hour. Afterwards, 40 µL of medium was removed from each well before the addition of 90 µL of the media, followed by incubation for 24 hours at 37 °C, 5 % CO2. Then, 10 µL of alamarBlue® (Invitrogen) was added to each well before a 2 hour incubation prior to assessing cell viability using a fluorescent plate reader (Biotek; λex 560 nm, λem 600 nm).

[1] = tested on: methicillin-resistant Staphylococcus aureus USA 300
HaCaT keratinocytes = assay: Cytotoxicity assay (alamarBlue cell viability), HaCaT; type: cell-based; settings: 1 hour with compound 2–100 µM, then 24 hours
Description: as §1

S. aureus = settings: had shown promising antibacterial activities; strain and reference not given; cited from earlier work
[2] = tested on: methicillin-resistant Staphylococcus aureus USA 300; assay: microbe, parasite or virus in culture; settings: MRSA / USA300, read-out: MIC S. aureus (USA300)

SMILES | ED50 HepG2 (epithelial HepG2 cells) [µM] | MIC S. aureus (USA300) ([1]; USA 300) [µM] | ED50 HaCaT (HaCaT keratinocytes) [µM] | MIC against S. aureus (reason for choosing the sequences) (S. aureus) | MIC S. aureus (USA300) ([1]; MRSA USA300, CAMHB, overnight incubation 35 °C, visual inspection, duplicate) [µM] | MIC [2] [µM]
C[C@@H](c1ccccc1)N(CC(N)=O)C(=O)CN(C(=O)CN(CCCCN)C(=O)CN(Cc1ccc(F)cc1)C(=O)CN(Cc1ccc(F)cc1)C(=O)CN(CCCCN)C(=O)CN(C(=O)CN(C(=O)CN(CCCCN)C(=O)CN(Cc1ccc(F)cc1)C(=O)CN(Cc1ccc(F)cc1)C(=O)CNCCCCN)[C@@H](C)c1ccccc1)[C@@H](C)c1ccccc1)[C@@H](C)c1ccccc1 [1b, [(NLysNpfbNpfb)(NLysNspeNspe)]2] (H-[Nlys][N(4-F-Bzl)Gly][N(4-F-Bzl)Gly][Nlys][Nspe][Nspe][Nlys][N(4-F-Bzl)Gly][N(4-F-Bzl)Gly][Nlys][Nspe][Nspe]-NH2; N-terminus and C-terminus assumed) | 18 | 2 to 4 | 53 | below 2 µM |  | 
C[C@@H](c1ccccc1)N(CC(N)=O)C(=O)CN(C(=O)CN(CCN)C(=O)CN(C(=O)CN(C(=O)CN(CCN)C(=O)CN(C(=O)CN(C(=O)CN(CCN)C(=O)CN(C(=O)CN(C(=O)CNCCN)[C@@H](C)c1ccccc1)[C@@H](C)c1ccccc1)[C@@H](C)c1ccccc1)[C@@H](C)c1ccccc1)[C@@H](C)c1ccccc1)[C@@H](C)c1ccccc1)[C@@H](C)c1ccccc1 [1a, (NaeNspeNspe)4] (H-[Gly(N-2-aminoethyl)][Nspe][Nspe][Gly(N-2-aminoethyl)][Nspe][Nspe][Gly(N-2-aminoethyl)][Nspe][Nspe][Gly(N-2-aminoethyl)][Nspe][Nspe]-NH2; N-terminus and C-terminus assumed) | 15 | 2 (≈ 3.41 µg/mL) | 26 | below 2 µM |  | 
C=C1NC(=O)[C@H]([C@@H](C)CC)NC(=O)[C@H](NC(=O)/C(=C/C)NC(=O)[C@@H](N)[C@@H](C)CC)CSC[C@@H](C(=O)N[C@H]2C(=O)N3CCC[C@H]3C(=O)NCC(=O)N[C@H](C(=O)N[C@@H](CCCCN)C(=O)O)CS[C@H]2C)NC(=O)[C@H](CC(C)C)NC1=O [compound 4, Nisin[1,2,3,4,5,6,7,8,9, 10, 11, 12], reference compound] |  |  |  |  | > 100 | 
CN[C@H](CC(C)C)C(=O)N[C@H]1C(=O)N[C@@H](CC(N)=O)C(=O)N[C@H]2C(=O)N[C@H]3C(=O)N[C@H](C(=O)N[C@H](C(=O)O)c4cc(O)cc(O)c4-c4cc3ccc4O)[C@H](O)c3ccc(c(Cl)c3)Oc3cc2cc(c3O[C@@H]2O[C@H](CO)[C@@H](O)[C@H](O)[C@H]2O[C@H]2C[C@](C)(N)[C@H](O)[C@H](C)O2)Oc2ccc(cc2Cl)[C@H]1O [compound 7, Vancomycin] |  |  |  |  |  | 1 (≈ 1.45 µg/mL)
